Reference: patent US5591758A, “Organic nitrates, processes for their preparation and their use in the treatment of cardiovascular diseases” (Laboratoires Hoechst, SA, priority 1991, dated 1997)
Structures can show the parent of a compound that is named as a salt.

Columns and labels:
thoracic aorta = experiment: Vasorelaxant effect on isolated vessels (rat thoracic aorta rings without endothelium, precontracted with noradrenalin); parameters: species or system Wistar rats; details: for Emax: Rattus norvegicus, maximum inhibition of noradrenalin effect, 10^-8 to 10^-4 M substance, read-out: Maximum Relaxation; for IC50: rat aorta, 10^-7 M noradrenalin contraction
Protocol: Vasorelaxant effect of the compounds according to the invention on isolated vessels.
Adult Wistar rats weighing between 250 and 350 g are anaesthetised by intraperitoneal injection of sodium pentobarbital (30 mg/kg). The thoracic aorta is rapidly removed and placed in a refrigerated and oxygenated solution of bicarbonate buffer of the Krebs-Ringer type (composition [mM]: NaCl, 118; KCl, 4.7; CaCl2, 2.5; MgSO4, 1.2; KH2 PO4, 1.2; NaHCO3, 25.0; disodium calcium salt of EDTA, 0.026; glucose 11.1). The aorta is dissected with the aim of removing the connective tissue and then cut into 6 rings (length 5-10 mm). The endothelium is removed by moderate abrasion of the intimal surface of the aortic segments with the aid of a pair of tweezers. These segments are then placed between two hooks in an isolated organ cell filled with 25 ml of bicarbonate buffer (pH 7.4), thermostat-controlled at 37° C. and oxygenated with the aid of a 95% O2 /5% CO2 mixture (pH 7.4). One of the hooks is fixed to a fixed point, while the second is connected to a transducer with the aim of measuring the variations in isometric voltage (expressed in grams). After an equilibration period of 30 min., the segments are progressively withdrawn so as to attain the level of base voltage for which the contractor response to noradrenalin (10^-7 M) is maximum (optimum voltage; average 2 g). The absence of endothelium is verified by addition of a single concentration of acetylcholine (10^-6 M), after precontraction of the vessels by noradrenalin (10^-7 M). The integrity of the vascular smooth muscle is also verified by adding a single concentration of a vasodilator whose response is independent of the presence of the endothelium, SIN-1 (10^-5 M). After this initial procedure, the aortas are washed, equilibrated for a period of 30 min and then recontracted (10^-7 M noradrenalin). The relaxant effect of the substance to be tested is then evaluated by adding increasing concentrations of this substance (from 10^-8 to 10^-4 M). The maximum inhibition of the concentration caused by noradrenalin (expressed as a percentage) is then calculated ("maximum relaxation"). When this maximum relaxation is greater than 50%, the concentration of substance tested producing a 50% inhibition of the maximum contraction (IC50) is calculated. Table V below collates the IC50 and the maximum relaxation percentages for the various compounds tested.

anesthetised dogs = experiment: Haemodynamic effects on anesthetised dogs; type: in vivo, dogs (labrador/harrier cross); details: dogs
Protocol: Haemodynamic effects of the compounds according to the invention on anesthetised pigs or dogs
The dogs, weighing between 16 and 26 kg, are the progeny of a labrador/harrier cross.
In the case of dogs the anesthesia is induced by sodium pentobarbitol (45 mg/jg i.v.) and maintained with an i.v. perfusion (flow rate of 8 mg/kg/h).
The pigs or dogs are placed under artificial respiration in ambient air. Analysis of the blood gases (pO2, pCO2) is carried out at regular intervals and oxygen can be supplied via the respirator, if necessary.
The haemodynamic parameters recorded include the left ventricular pressure (LVP; Millar PC350 Tip catheter inserted via the carotid artery), systemic blood pressure (BPs, BPd; full catheter in a femoral artery), the end pressure of the left ventricular diastole (LVEDP), the ventricular contractility (LVPdp/dtmax) and the heart rate (HR).
Following an equilibration period of the order of 45 minutes, the compounds studied are administered intraduodenally (i.d.) or intraveinously (i.v.) to several animals (1 to 4). The haemodynamic variables are recorded continuously for 1 to 3 hours, as a function of the period of action of the compound.
The effects of the compounds studied are shown as the absolute difference with respect to the base value (bv) measured before administration of the compounds and are shown in Table VII (a,b,c).
An antianginal activity is estimated by a fall in the BPs and the LVEDP (fall in venous return).

| Structure (SMILES) | Emax (thoracic aorta) | IC50 (thoracic aorta) | BPs (min), period of action (anesthetised dogs; 3 mg/kg i.v.) | BPs, difference to base value (anesthetised dogs; 3 mg/kg i.v.) | LVEDP (min), period of action (anesthetised dogs; 3 mg/kg i.v.) | LVEDP, difference to base value (anesthetised dogs; 3 mg/kg i.v.) | BPs (min), period of action (anesthetised dogs; 3 mg/kg i.d.) | BPs, difference to base value (anesthetised dogs; 3 mg/kg i.d.) | LVEDP (min), period of action (anesthetised dogs; 3 mg/kg i.d.) | LVEDP, difference to base value (anesthetised dogs; 3 mg/kg i.d.) | BPs (min), period of action (anesthetised dogs; 10 mg/kg i.v.) | BPs, difference to base value (anesthetised dogs; 10 mg/kg i.v.) | LVEDP (min), period of action (anesthetised dogs; 10 mg/kg i.v.) | LVEDP, difference to base value (anesthetised dogs; 10 mg/kg i.v.) |
| --- | --- | --- | --- | --- | --- | --- | --- | --- | --- | --- | --- | --- | --- | --- |
| CC(C)(C)OC(=O)NCC(=O)O[C@H]1CO[C@H]2[C@@H]1OC[C@H]2O[N+](=O)[O-] [Compound 1, N-[(t-Butoxy)carbonyl]glycine ester of 5-O-nitro-1,4:3,6-dianhydro-D-glucitol] | 83% | 32 µM | 10 min | 5 mmHg | 10 min | 1,0 mmHg | – | – | – | – | – | – | – | – |
| NCC(=O)O[C@H]1CO[C@H]2[C@@H]1OC[C@H]2O[N+](=O)[O-] [Compound 2, Glycine ester of 5-O-nitro-1,4:3,6-dianhydro-D-glucitol monohydrochloride] | 52% | 100 µM | > 120 min | -10 mmHg | > 120 min | -1,0 mmHg | – | – | – | – | – | – | – | – |
| NCC(=O)O[C@@H]1CO[C@H]2[C@@H]1OC[C@@H]2O[N+](=O)[O-] [Compound 3, Glycine ester of 2-O-nitro-1,4:3,6-dianhydro-D-glucitol monohydrochloride] | 63% | 79 µM | – | – | – | – | > 60 min | -10 mmHg | > 60 min | -4,5 mmHg | – | – | – | – |
| C[C@H](NC(=O)OC(C)(C)C)C(=O)N[C@H]1CO[C@H]2[C@@H]1OC[C@@H]2O[N+](=O)[O-] [Compound 7, N-[(t-Butoxy)carbonyl]-L-alanine amide of 5-amino-5-deoxy-2-O-nitro-1,4:3,6-dianhydro-L-iditol] | 96% | 17 µM | > 90 min | -20 mmHg | > 90 min | -2,0 mmHg | – | – | – | – | – | – | – | – |
| C[C@H](N)C(=O)N[C@H]1CO[C@H]2[C@@H]1OC[C@@H]2O[N+](=O)[O-] [Compound 8, L-Alanine amide of 5-amino-5-deoxy-2-O-nitro-1,4:3,6-dianhydro-L-iditol monohydrochloride] | 80% | 32 µM | – | – | – | – | > 150 min | -30 mmHg | – | – | – | – | – | – |
| CC(C)[C@H](NC(=O)OC(C)(C)C)C(=O)N[C@H]1CO[C@H]2[C@@H]1OC[C@@H]2O[N+](=O)[O-] [Compound 9, N-[(t-Butoxy)carbonyl]-L-valine amide of 5-amino-5-deoxy-2-O-nitro-1,4:3,6-dianhydro-L-iditol] | 70% | 80 µM | – | – | – | – | > 60 min | 5 mmHg | 0 min | 0,0 mmHg | – | – | – | – |
| CC(C)(C)OC(=O)N[C@@H](Cc1ccccc1)C(=O)N[C@H]1CO[C@H]2[C@@H]1OC[C@@H]2O[N+](=O)[O-] [Compound 11, N-[(t-Butoxy)carbonyl]-L-phenylalanine amide of 5-amino-5-deoxy-2-O-nitro-1,4:3,6-dianhydro-L-iditol] | 100% | 25 µM | > 30 min | -10 mmHg | 0 min | 0,0 mmHg | – | – | – | – | – | – | – | – |
| N[C@@H](Cc1ccccc1)C(=O)N[C@H]1CO[C@H]2[C@@H]1OC[C@@H]2O[N+](=O)[O-] [Compound 12, L-phenylalanine amide of 5-amino-5-deoxy-2-O-nitro-1,4:3,6-dianhydro-L-iditol monohydrochloride] | 100% | 2.5 µM | – | – | – | – | > 240 min | -30 mmHg | – | – | – | – | – | – |
| CC(C)(C)OC(=O)N1CCC[C@H]1C(=O)N[C@H]1CO[C@H]2[C@@H]1OC[C@@H]2O[N+](=O)[O-] [Compound 13, N-[(t-Butoxy)carbonyl]-L-proline amide of 5-amino-5-deoxy-2-O-nitro-1,4:3,6-dianhydro-L-iditol] | 74% | 49 µM | – | – | – | – | > 120 min | -30 mmHg | – | – | – | – | – | – |
| O=C(N[C@H]1CO[C@H]2[C@@H]1OC[C@@H]2O[N+](=O)[O-])[C@@H]1CCCN1 [Compound 14, L-Proline amide of 5-amino-5-deoxy-2-O-nitro-1,4:3,6-dianhydro-L-iditol monohydrochloride] | 98% | 14 µM | > 90 min | -10 mmHg | > 90 min | -2,0 mmHg | – | – | – | – | – | – | – | – |
| CC(C)(C)OC(=O)NCC(=O)N[C@H]1CO[C@H]2[C@@H]1OC[C@H]2O[N+](=O)[O-] [Compound 15, N-[(t-Butoxy)carbonyl]glycine amide of 2-amino-2-deoxy-5-O-nitro-1,4:3,6-dianhydro-D-glucitol] | 58% | 60 µM | – | – | – | – | > 180 min | -20 mmHg | > 180 min | -3,0 mmHg | – | – | – | – |
| NCC(=O)N[C@H]1CO[C@H]2[C@@H]1OC[C@H]2O[N+](=O)[O-] [Compound 16, Glycine amide of 2-amino-2-deoxy-5-O-nitro-1,4:3,6-dianhydro-D-glucitol monohydrochloride] | 41% | > 100 µM | – | – | – | – | – | – | – | – | > 30 min | -5 mmHg | > 30 min | -1,0 mmHg |
| CC(C)(C)OC(=O)N1CSC[C@H]1C(=O)O[C@H]1CO[C@H]2[C@@H]1OC[C@H]2O[N+](=O)[O-] [Compound 18, 2-O-[(3-t-Butoxycarbonyl-4-L-thiazolidinyl)carbonyl]-5-O-nitro-1,4:3,6-dianhydro-D-glucitol] | 75% | 72 µM | – | – | – | – | – | – | – | – | > 30 min | -10 mmHg | > 30 min | 3,0 mmHg |
| O=C(O[C@H]1CO[C@H]2[C@@H]1OC[C@H]2O[N+](=O)[O-])[C@@H]1CSCN1 [Compound 19, 2-O-[(4-L-Thiazolidinyl)carbonyl]-5-O-nitro-1,4:3,6-dianhydro-D-glucitol monohydrochloride] | 40% | > 100 µM | – | – | – | – | – | – | – | – | > 60 min | -35 mmHg | 0 min | 0,0 mmHg |
| CC(=O)NCSC[C@H](N)C(=O)O[C@H]1CO[C@H]2[C@@H]1OC[C@H]2O[N+](=O)[O-] [Compound 21, S-[(Acetylamino)methyl]-L-cysteine ester of 5-O-nitro-1,4:3,6-dianhydro-D-glucitol monohydrochloride] | 31% | 100 µM | – | – | – | – | > 60 min | -5 mmHg | > 60 min | -2,0 mmHg | – | – | – | – |
| O=C(N[C@H]1CO[C@H]2[C@@H]1OC[C@H]2O[N+](=O)[O-])c1ccccc1SCc1ccccc1 [Compound 45] | – | – | > 120 min | -10 mmHg | 0 min | 0,0 mmHg | – | – | – | – | – | – | – | – |
